The structures appear in SMILES notation.

These results are taken from patent US10023557B2 (LifeSci Pharmaceuticals, Inc., priority 2015, dated 2018).

Sequence of human plasma kallikrein (P03952 391-638): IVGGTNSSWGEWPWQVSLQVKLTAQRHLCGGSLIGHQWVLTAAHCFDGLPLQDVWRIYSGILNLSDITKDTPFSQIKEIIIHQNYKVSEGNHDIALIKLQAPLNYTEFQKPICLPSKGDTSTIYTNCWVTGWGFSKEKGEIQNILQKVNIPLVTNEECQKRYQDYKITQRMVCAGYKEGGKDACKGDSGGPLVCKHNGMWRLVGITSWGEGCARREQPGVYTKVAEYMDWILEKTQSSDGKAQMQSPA
Sequence of human plasma kallikrein (P03952 20-390 partner): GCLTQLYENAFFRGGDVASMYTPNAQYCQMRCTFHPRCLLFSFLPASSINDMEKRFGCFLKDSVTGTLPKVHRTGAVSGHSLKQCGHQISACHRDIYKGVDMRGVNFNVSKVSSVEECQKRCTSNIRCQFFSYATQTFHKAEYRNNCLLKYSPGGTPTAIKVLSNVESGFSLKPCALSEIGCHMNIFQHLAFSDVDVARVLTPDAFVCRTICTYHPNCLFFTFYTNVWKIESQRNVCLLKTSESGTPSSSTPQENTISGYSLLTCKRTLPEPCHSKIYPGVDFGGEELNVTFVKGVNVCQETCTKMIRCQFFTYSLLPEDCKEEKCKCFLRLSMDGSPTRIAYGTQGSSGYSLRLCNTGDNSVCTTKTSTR

This test deals with human plasma kallikrein (Homo sapiens (Human), UniProt P03952). Kind of test: In vitro enzyme inhibition of human plasma kallikrein (PFR-AMC cleavage). Format: biochemical. The note with it: Pro-Phe-Arg-AMC substrate, 37° C., read-out: hPK IC50. The protocol:
The ability of the compounds disclosed herein to inhibit human plasma kallikrein activity was quantified according to the procedures below.
A 10 mM solution of the test compound was made in DMSO. […] A control tube containing only DMSO is included. 16 μL of each compound test solution was combined with 384 μL of assay buffer (50 mM Tris-HCl pH 7.5, 150 mM NaCl, 0.01% Triton X-100) to yield a “4× test compound buffer stock”.
These solutions are hereby referred to as 4× hPK and 2×PFR-AMC, respectively.
50 μL was removed from this mixture and placed into duplicate wells on a Microfluor 1Black U-bottom microtiter plate (Thermo Scientific). This plate was incubated for 5 minutes at 37° C. To each well, 50 μL of pre-warmed 2×PFR-AMC was added to start the enzymatic reaction. Cleavage of PFR-AMC was monitored in a Biotek Synergy H4 reader set at 37° C. Readings are taken every 43 seconds for 1 hour. […] The IC50 is calculated using the Gen5 (Biotek Instruments).
The ability of the compounds in Table 3 to inhibit human plasma kallikrein activity was determined.
On to `Cc1cc(N)nc(C)c1CNC(=O)c1cc(Cc2ccc3ncc(Cl)cc3c2)nc(-c2n[nH]c(=O)[nH]2)c1` [Example 196, N-((6-amino-2,4-dimethylpyridin-3-yl)methyl)-2-((3-chloroquinolin-6-yl)methyl)-6-(5-oxo-4,5-dihydro-1H-1,2,4-triazol-3-yl)isonicotinamide], for which the IC50 – broadly, the point on the concentration scale where inhibition reaches its midpoint – is less than 0.1 µM.
Under `CC1=CC2C=NN(Cc3cc(C(=O)NCc4c(C)cc(N)nc4C)ccn3)C2C=C1` (centres unmarked) [Example 201, N-((6-amino-2,4-dimethylpyridin-3-yl)methyl)-2-((5-methyl-3a,7a-dihydro-1H-indazol-1-yl)methyl)isonicotinamide] stands less than 0.1 µM.
Under `Cc1cc(N)nc(C)c1CNC(=O)c1ccnc(Cn2ncc3cc(Cl)cnc32)c1` [Example 202, N-((6-amino-2,4-dimethylpyridin-3-yl)methyl)-2-((5-chloro-1H-pyrazolo[3,4-b]pyridin-1-yl)methyl)isonicotinamide] stands 0.1 to 1 µM; under `Cc1cc(N)nc(C)c1CNC(=O)c1ccnc(Cn2cc3cc(Cl)cnc3n2)c1` [Example 203, N-((6-amino-2,4-dimethylpyridin-3-yl)methyl)-2-((5-chloro-2H-pyrazolo[3,4-b]pyridin-2-yl)methyl)isonicotinamide], 0.1 to 1 µM; under `Cc1nc(N)ccc1CNC(=O)c1ccnc(Cc2cnc3ncc(Cl)cc3c2)c1` [Example 205, N-((6-amino-2-methylpyridin-3-yl)methyl)-2-((6-chloro-1,8-naphthyridin-3-yl)methyl)isonicotinamide], less than 0.1 µM.
Take `O=C(NCc1ccc2ncc(Cl)cn12)c1ccnc(Cc2ccc3ncc(Cl)cc3c2)c1` [Example 206, N-((3-chloropyrrolo[1,2-a]pyrimidin-6-yl)methyl)-2-((3-chloroquinolin-6-yl)methyl)isonicotinamide]: the IC50 is more than 10 µM.
Under `Cc1cc(N)nc(C)c1CNC(=O)c1cc(C#N)nc(Cc2ccc3ncc(Cl)cc3c2)c1` [Example 207, N-((6-amino-2,4-dimethylpyridin-3-yl)methyl)-2-((3-chloroquinolin-6-yl)methyl)-6-cyanoisonicotinamide] stands less than 0.1 µM.
`Cc1nc(N)ccc1CNC(=O)c1cc(Cc2cnc3ncc(Cl)cc3c2)ncc1C#N` [Example 216, N-((6-amino-2-methylpyridin-3-yl)methyl)-2-((6-chloro-1,8-naphthyridin-3-yl)methyl)-5-cyanoisonicotinamide]: the half-inhibitory concentration (IC50) fell in the range of 0.1 to 1 µM.
The value for `Cc1nc(N)ccc1CNC(=O)c1ccnc(Cc2cc(N)c3ncc(Cl)cc3c2)c1` [Example 218, N-((6-amino-2-methylpyridin-3-yl)methyl)-2-((8-amino-3-chloroquinolin-6-yl)methyl)isonicotinamide] was less than 0.1 µM.
The value for `Cc1nc(N)ccc1CNC(=O)c1ccnc(Cc2cnc3cc(F)c(Cl)cc3c2)c1` [Example 227, N-((6-amino-2-methylpyridin-3-yl)methyl)-2-((6-chloro-7-fluoroquinolin-3-yl)methyl)isonicotinamide] was less than 0.1 µM.
Under `O=C(NCc1n[nH]c2ccc(Cl)cc12)c1ccnc(Cc2ccc3ncc(C(F)(F)F)cc3c2)c1` [Example 233, N-((5-chloro-1H-indazol-3-yl)methyl)-2-((3-(trifluoromethyl)quinolin-6-yl)methyl)isonicotinamide] stands less than 0.1 µM; under `Cc1nc(N)ccc1C(C)NC(=O)c1ccnc(Cc2ccc3ncc(Cl)cc3c2)c1` (centres unmarked) [Example 237, N-(1-(6-amino-2-methylpyridin-3-yl)ethyl)-2-((3-chloroquinolin-6-yl)methyl)isonicotinamide], 1 to 10 µM.
Regarding `COCCNc1ccc(CNC(=O)c2ccnc(Cc3ccc4ncc(Cl)cc4c3)c2)c(C)n1` [Example 242, 2-((3-chloroquinolin-6-yl)methyl)-N-((6-((2-methoxyethyl)amino)-2-methylpyridin-3-yl)methyl)isonicotinamide], the IC50 is 0.1 to 1 µM.
The value for `Cc1cc(N)nc(C)c1CNC(=O)c1ccnc(Cc2ccc3ncc(C(N)=O)cc3c2)c1` [Example 250, 6-((4-(((6-amino-2,4-dimethylpyridin-3-yl)methyl)carbamoyl)pyridin-2-yl)methyl)quinoline-3-carboxamide] was 0.1 to 1 µM; that for `Cc1nc(N)ccc1CNC(=O)c1ccnc(Cc2ccc3ncc(C(N)=O)cc3c2)c1` [Example 251, 6-((4-(((6-amino-2-methylpyridin-3-yl)methyl)carbamoyl)pyridin-2-yl)methyl)quinoline-3-carboxamide] was 1 to 10 µM; that for `Cc1nc(NCCO)ccc1CNC(=O)c1ccnc(Cc2ccc3ncc(Cl)cc3c2)c1` [Example 252, 2-((3-chloroquinolin-6-yl)methyl)-N-((6-((2-hydroxyethyl)amino)-2-methylpyridin-3-yl)methyl)isonicotinamide] was more than 10 µM.
Take `O=C(NCc1cnc2ncc(Cl)cn12)c1ccnc(Cc2ccc3ncc(Cl)cc3c2)c1` [Example 256, N-((6-chloroimidazo[1,2-a]pyrimidin-3-yl)methyl)-2-((3-chloroquinolin-6-yl)methyl)isonicotinamide]: the IC50 is more than 10 µM.
As for `Cc1cc(N)nc(C)c1CNC(=O)c1ccnc(Cc2ccc3ncc(CO)cc3c2)c1` [Example 257, N-((6-amino-2,4-dimethylpyridin-3-yl)methyl)-2-((3-(hydroxymethyl)quinolin-6-yl)methyl)isonicotinamide], the IC50 is less than 0.1 µM.
The value for `Cc1nc(N)ccc1CNC(=O)c1ccnc(Cc2ccc3ncc(CO)cc3c2)c1` [Example 258, N-((6-amino-2-methylpyridin-3-yl)methyl)-2-((3-(hydroxymethyl)quinolin-6-yl)methyl)isonicotinamide] was 0.1 to 1 µM; that for `O=C(NCc1cc2cc[nH]c2cc1F)c1ccnc(Cc2ccc3ncc(Cl)cc3c2)c1` [Example 259, 2-((3-chloroquinolin-6-yl)methyl)-N-((6-fluoro-1H-indol-5-yl)methyl)isonicotinamide] was 0.1 to 1 µM; that for `Cc1n[nH]c2ccc(CNC(=O)c3ccnc(Cc4ccc5ncc(Cl)cc5c4)c3)cc12` [Example 261, 2-((3-chloroquinolin-6-yl)methyl)-N-((3-methyl-1H-indazol-5-yl)methyl)isonicotinamide] was 1 to 10 µM.
The value for `Cc1cc(N)nc(C)c1CNC(=O)c1ccnc(Cc2ccc3ncc(C(C)O)cc3c2)c1` (centres unmarked) [Example 262, N-((6-amino-2,4-dimethylpyridin-3-yl)methyl)-2-((3-(1-hydroxyethyl)quinolin-6-yl)methyl)isonicotinamide] was less than 0.1 µM; that for `Cc1nc(N)ccc1CNC(=O)c1ccnc(Cc2ccc3ncc(C(C)O)cc3c2)c1` (centres unmarked) [Example 263, N-((6-amino-2-methylpyridin-3-yl)methyl)-2-((3-(1-hydroxyethyl)quinolin-6-yl)methyl)isonicotinamide] was 0.1 to 1 µM.
As for `COc1cnc2ccc(Cc3cc(C(=O)NCc4ccc(N)nc4C)ccn3)cc2c1` [Example 265, N-(6-amino-2-methyl-pyridin-3-ylmethyl)-2-(3-methoxy-quinolin-6-ylmethyl)-isonicotinamide], the IC50 was less than 0.1 µM.
The value for `Cc1n[nH]c2ncc(CNC(=O)c3ccnc(Cc4ccc5ncc(Cl)cc5c4)c3)cc12` [Example 266, 2-((3-chloroquinolin-6-yl)methyl)-N-((3-methyl-1H-pyrazolo[3,4-b]pyridin-5-yl)methyl)isonicotinamide] was 1 to 10 µM; that for `O=C(NCc1ccc2[nH]nc(C(F)(F)F)c2c1)c1ccnc(Cc2ccc3ncc(Cl)cc3c2)c1` [Example 267, 2-((3-chloroquinolin-6-yl)methyl)-N-((3-(trifluoromethyl)-1H-indazol-5-yl)methyl)isonicotinamide] was 1 to 10 µM; that for `O=C(NCc1c[nH]c2ccc(Cl)cc12)c1ccnc(Cc2ccc3ncc(Cl)cc3c2)c1` [Example 268, N-((5-chloro-1H-indol-3-yl)methyl)-2-((3-chloroquinolin-6-yl)methyl)isonicotinamide] was 0.1 to 1 µM.
Under `O=C(NCc1c[nH]c2ncc(Cl)cc12)c1ccnc(Cc2ccc3ncc(Cl)cc3c2)c1` [Example 269, N-((5-chloro-1H-pyrrolo[2,3-b]pyridin-3-yl)methyl)-2-((3-chloroquinolin-6-yl)methyl)isonicotinamide] stands 1 to 10 µM; under `Cc1[nH]c2ccc(Cl)cc2c1CNC(=O)c1ccnc(Cc2ccc3ncc(Cl)cc3c2)c1` [Example 270, N-((5-chloro-2-methyl-1H-indol-3-yl)methyl)-2-((3-chloroquinolin-6-yl)methyl)isonicotinamide], 0.1 to 1 µM.
Take `O=C(NCc1cnc2[nH]nc(C(F)(F)F)c2c1)c1ccnc(Cc2ccc3ncc(Cl)cc3c2)c1` [Example 271, 2-((3-chloroquinolin-6-yl)methyl)-N-((3-(trifluoromethyl)-1H-pyrazolo[3,4-b]pyridin-5-yl)methyl)isonicotinamide]: the IC50 fell in the range of 0.1 to 1 µM.
For the molecule `Cc1nc(N)ccc1CNC(=O)c1ccnc(Cc2cc(-c3nnn[nH]3)c3ncc(Cl)cc3c2)c1` [Example 273, N-((6-amino-2-methylpyridin-3-yl)methyl)-2-((3-chloro-8-(1H-tetrazol-5-yl)quinolin-6-yl)methyl)isonicotinamide], the IC50 was in the range of 0.1 to 1 µM.
The value for `Cc1cc(N)nc(C)c1CNC(=O)c1ccnc(C(=O)c2ccc3ncc(Cl)cc3c2)c1` [Example 274, N-((6-amino-2,4-dimethylpyridin-3-yl)methyl)-2-(3-chloroquinoline-6-carbonyl)isonicotinamide] was 0.1 to 1 µM.
